In ChEMBL document CHEMBL3045391, “Synthesis and biological evaluation of 5,7-diaryl-4,4-dimethyl-4,5,6,7-tetrahydropyridino[3,4-d]-1,2,3-thiadiazoles” (2007):
Calls of active or inactive are those of the source. The rule behind the calls is not given here.

Key:
[1] = test system: Streptococcus; assay: Antibacterial activity against beta-hemolytic Streptococcus at 100 ppm after 24 hr by disk diffusion method; format: functional, organism-based
[2] = test system: Staphylococcus aureus; assay: Antibacterial activity against Staphylococcus aureus at 500 ppm after 24 hr by disk diffusion method; format: functional; conditions: read-out: IZ
[3] = test system: Staphylococcus aureus; assay: Antibacterial activity against Staphylococcus aureus at 200 ppm after 24 hr by disk diffusion method; format: functional; conditions: read-out: IZ
[4] = test system: Nannizzia gypsea; assay: Antifungal activity against Microsporum gypseum at 100 ppm after 72 to 96 hr by disk diffusion method; format: functional; conditions: read-out: IZ
[5] = test system: Staphylococcus aureus; assay: Antibacterial activity against Staphylococcus aureus at 100 ppm after 24 hr by disk diffusion method; format: functional; conditions: for zone of inhibition at 100 ppm: read-out: IZ
[6] = test system: Escherichia coli; assay: Antibacterial activity against Escherichia coli at 200 ppm after 24 hr by disk diffusion method; format: functional; conditions: read-out: IZ
[7] = test system: Mucor; assay: Antifungal activity against Mucor at 200 ppm after 72 to 96 hr by disk diffusion method; format: functional; conditions: read-out: IZ
[8] = test system: Shigella flexneri; assay: Antibacterial activity against Shigella flexneri at 500 ppm after 24 hr by disk diffusion method; format: functional; conditions: read-out: IZ
[9] = test system: Vibrio cholerae; assay: Antibacterial activity against Vibrio cholerae at 200 ppm after 24 hr by disk diffusion method; format: functional; conditions: read-out: IZ
[10] = test system: Nannizzia gypsea; assay: Antifungal activity against Microsporum gypseum at 200 ppm after 72 to 96 hr by disk diffusion method; format: functional; conditions: read-out: IZ
[11] = test system: Streptococcus; assay: Antibacterial activity against beta-hemolytic Streptococcus at 500 ppm after 24 hr by disk diffusion method; format: functional; conditions: read-out: IZ
[12] = test system: Klebsiella pneumoniae; assay: Antibacterial activity against Klebsiella pneumoniae at 500 ppm after 24 hr by disk diffusion method; format: functional; conditions: read-out: IZ
[13] = test system: Rhizopus; assay: Antifungal activity against Rhizopus at 500 ppm after 72 to 96 hr by disk diffusion method; format: functional; conditions: read-out: IZ
[14] = test system: Rhizopus; assay: Antifungal activity against Rhizopus at 100 ppm after 72 to 96 hr by disk diffusion method; format: functional
[15] = test system: Salmonella typhi; assay: Antibacterial activity against Salmonella enterica subsp. enterica serovar Typhi at 100 ppm after 24 hr by disk diffusion method; format: functional; conditions: for zone of inhibition at 100 ppm: read-out: IZ
[16] = test system: Nannizzia gypsea; assay: Antifungal activity against Microsporum gypseum at 500 ppm after 72 to 96 hr by disk diffusion method; format: functional; conditions: read-out: IZ
[17] = test system: Mucor; assay: Antifungal activity against Mucor at 500 ppm after 72 to 96 hr by disk diffusion method; format: functional; conditions: read-out: IZ
[18] = test system: Rhizopus; assay: Antifungal activity against Rhizopus at 200 ppm after 72 to 96 hr by disk diffusion method; format: functional; conditions: read-out: IZ
[19] = test system: Salmonella typhi; assay: Antibacterial activity against Salmonella enterica subsp. enterica serovar Typhi at 500 ppm after 24 hr by disk diffusion method; format: functional; conditions: read-out: IZ
[20] = test system: Escherichia coli; assay: Antibacterial activity against Escherichia coli at 100 ppm after 24 hr by disk diffusion method; format: functional, organism-based
[21] = test system: Vibrio cholerae; assay: Antibacterial activity against Vibrio cholerae at 500 ppm after 24 hr by disk diffusion method; format: functional; conditions: read-out: IZ
[22] = test system: Klebsiella pneumoniae; assay: Antibacterial activity against Klebsiella pneumoniae at 200 ppm after 24 hr by disk diffusion method; format: functional; conditions: read-out: IZ
[23] = test system: Pseudomonas; assay: Antibacterial activity against Pseudomonas at 100 ppm after 24 hr by disk diffusion method; format: functional
[24] = test system: Pseudomonas; assay: Antibacterial activity against Pseudomonas at 500 ppm after 24 hr by disk diffusion method; format: functional; conditions: read-out: IZ
[25] = test system: Vibrio cholerae; assay: Antibacterial activity against Vibrio cholerae at 100 ppm after 24 hr by disk diffusion method; format: functional; conditions: read-out: IZ
[26] = test system: Shigella flexneri; assay: Antibacterial activity against Shigella flexneri at 200 ppm after 24 hr by disk diffusion method; format: functional; conditions: read-out: IZ
[27] = test system: Mucor; assay: Antifungal activity against Mucor at 100 ppm after 72 to 96 hr by disk diffusion method; format: functional
[28] = test system: Salmonella typhi; assay: Antibacterial activity against Salmonella enterica subsp. enterica serovar Typhi at 200 ppm after 24 hr by disk diffusion method; format: functional; conditions: read-out: IZ
[29] = test system: Shigella flexneri; assay: Antibacterial activity against Shigella flexneri at 100 ppm after 24 hr by disk diffusion method; format: functional; conditions: for zone of inhibition at 100 ppm: read-out: IZ
[30] = test system: Klebsiella pneumoniae; assay: Antibacterial activity against Klebsiella pneumoniae at 100 ppm after 24 hr by disk diffusion method; format: functional; conditions: read-out: IZ
[31] = test system: Escherichia coli; assay: Antibacterial activity against Escherichia coli at 500 ppm after 24 hr by disk diffusion method; format: functional; conditions: read-out: IZ
[32] = test system: Aspergillus flavus; assay: Antifungal activity against Aspergillus flavus at 100 ppm after 72 to 96 hr by disk diffusion method; format: functional; conditions: read-out: IZ
[33] = test system: Pseudomonas; assay: Antibacterial activity against Pseudomonas at 200 ppm after 24 hr by disk diffusion method; format: functional; conditions: read-out: IZ
[34] = test system: Streptococcus; assay: Antibacterial activity against beta-hemolytic Streptococcus at 200 ppm after 24 hr by disk diffusion method; format: functional; conditions: read-out: IZ
[35] = test system: Aspergillus flavus; assay: Antifungal activity against Aspergillus flavus at 500 ppm after 72 to 96 hr by disk diffusion method; format: functional; conditions: read-out: IZ
[36] = test system: Aspergillus flavus; assay: Antifungal activity against Aspergillus flavus at 200 ppm after 72 to 96 hr by disk diffusion method; format: functional; conditions: read-out: IZ
[37] = test system: Aspergillus flavus; assay: Antifungal activity against Aspergillus flavus at 100 units/disk after 72 to 96 hr by disk diffusion method; format: functional
[38] = test system: Rhizopus; assay: Antifungal activity against Rhizopus at 100 units/disk after 72 to 96 hr by disk diffusion method; format: functional
[39] = test system: Mucor; assay: Antifungal activity against Mucor at 100 units/disk after 72 to 96 hr by disk diffusion method; format: functional
[40] = test system: Nannizzia gypsea; assay: Antifungal activity against Microsporum gypseum at 100 units/disc after 72 to 96 hr by disc diffusion method; format: functional

| Structure (SMILES) | inhibition zone (IZ) [1] | zone of inhibition at 500 ppm [2] [mm] | zone of inhibition at 200 ppm [3] [mm] | zone of inhibition at 100 ppm [4] [mm] | zone of inhibition at 200 ppm [6] [mm] | zone of inhibition at 200 ppm [7] [mm] | zone of inhibition at 500 ppm [8] [mm] | zone of inhibition at 200 ppm [9] [mm] | zone of inhibition at 200 ppm [10] [mm] | zone of inhibition at 500 ppm [11] [mm] | zone of inhibition at 500 ppm [12] [mm] | zone of inhibition at 500 ppm [13] [mm] | zone of inhibition at 500 ppm [16] [mm] | zone of inhibition at 500 ppm [17] [mm] | zone of inhibition at 200 ppm [18] [mm] | zone of inhibition at 500 ppm [19] [mm] | inhibition zone (IZ) [20] | zone of inhibition at 500 ppm [21] [mm] | zone of inhibition at 200 ppm [22] [mm] | zone of inhibition at 500 ppm [24] [mm] | further results |
| --- | --- | --- | --- | --- | --- | --- | --- | --- | --- | --- | --- | --- | --- | --- | --- | --- | --- | --- | --- | --- | --- |
| COc1ccc(C2NC(c3ccc(OC)cc3)C(C)(C)c3nnsc32)cc1 (configuration not stated) | inactive | 30 | 22 | 12 | 17 | 17 | 17 | 17 | 17 | 30 | 22 | 22 | 30 | 17 | 12 | 17 | inactive | 17 | 17 | 12 | zone of inhibition at 100 ppm [5]: 12 mm; inhibition zone (IZ) [14]: inactive; zone of inhibition at 100 ppm [15]: 12 mm; inhibition zone (IZ) [23]: inactive; zone of inhibition at 100 ppm [25]: 12 mm; zone of inhibition at 200 ppm [26]: 17 mm; zone of inhibition at 100 ppm ([27]; read-out: IZ): 12 mm; zone of inhibition at 200 ppm [28]: 17 mm; zone of inhibition at 100 ppm [29]: 12 mm; zone of inhibition at 100 ppm [30]: 17 mm; zone of inhibition at 500 ppm [31]: 17 mm; zone of inhibition at 100 ppm [32]: 12 mm; zone of inhibition at 200 ppm [33]: 12 mm; zone of inhibition at 200 ppm [34]: 12 mm; zone of inhibition at 500 ppm [35]: 17 mm; zone of inhibition at 200 ppm [36]: 12 mm |
| CC1(C)c2nnsc2C(c2ccccc2)NC1c1ccccc1 (configuration not stated) | inactive | 22 | 17 | 12 | 12 | 12 | 17 | 12 | 17 | 22 | 22 | 17 | 30 | 17 | 17 | 12 | inactive | 17 | 17 | 12 | inhibition zone (IZ) [5]: inactive; zone of inhibition at 100 ppm ([14]; read-out: IZ): 12 mm; zone of inhibition at 100 ppm [15]: 12 mm; zone of inhibition at 100 ppm ([23]; read-out: IZ): 12 mm; zone of inhibition at 100 ppm [25]: 12 mm; zone of inhibition at 200 ppm [26]: 12 mm; inhibition zone (IZ) [27]: inactive; zone of inhibition at 200 ppm [28]: 12 mm; inhibition zone (IZ) [29]: inactive; zone of inhibition at 100 ppm [30]: 12 mm; zone of inhibition at 500 ppm [31]: 12 mm; zone of inhibition at 100 ppm [32]: 12 mm; zone of inhibition at 200 ppm [33]: 12 mm; zone of inhibition at 200 ppm [34]: 12 mm; zone of inhibition at 500 ppm [35]: 17 mm; zone of inhibition at 200 ppm [36]: 12 mm |
| OC(Cn1cncn1)(Cn1cncn1)c1ccc(F)cc1F [FLUCONAZOLE] |  |  |  |  |  |  |  |  |  |  |  |  |  |  |  |  |  |  |  |  | inhibition zone (IZ) [37]: 20 mm; inhibition zone (IZ) [38]: 20 mm; inhibition zone (IZ) [39]: 20 mm; inhibition zone (IZ) [40]: 20 mm |
| CC1(C)c2nnsc2C(c2ccc(Cl)cc2)NC1c1ccc(Cl)cc1 (configuration not stated) | inactive | 30 | 22 | 12 | 12 | 12 | 12 | 12 | 17 | 30 | 22 | 22 | 22 | 12 | 12 | 17 | inactive | 12 | 17 | 12 | zone of inhibition at 100 ppm [5]: 12 mm; inhibition zone (IZ) [14]: inactive; inhibition zone (IZ) [15]: inactive; inhibition zone (IZ) [23]: inactive; zone of inhibition at 100 ppm [25]: 12 mm; zone of inhibition at 200 ppm [26]: 12 mm; inhibition zone (IZ) [27]: inactive; zone of inhibition at 200 ppm [28]: 17 mm; zone of inhibition at 100 ppm [29]: 12 mm; zone of inhibition at 100 ppm [30]: 12 mm; zone of inhibition at 500 ppm [31]: 17 mm; zone of inhibition at 100 ppm [32]: 12 mm; zone of inhibition at 200 ppm [33]: 12 mm; zone of inhibition at 200 ppm [34]: 12 mm; zone of inhibition at 500 ppm [35]: 17 mm; zone of inhibition at 200 ppm [36]: 12 mm |
